Assay results as given in patent US10869931B2, “Polyethylene glycol-modified angiogenesis inhibitor HM-1 and application thereof” (NANJING ANJI BIOLOGICAL TECHNOLOGY CO.,LTD, priority 2016, dated 2020).
Where no end group is shown, it is not given here.

How the values were obtained:
[1] = test system: Thyroid cancer tumor cells; experiment: MTT proliferation inhibition, thyroid cancer cells; type: cell-based, human; parameters: concentration or dose not given beside the values; conditions: 48 h
How it was run: (§1)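 Tumour cells plated at 2×10^4 cells/mL, attached overnight, then exposed to dilutions of mPEG-HM-1 for 48 h at 37 °C, 5% CO2. MTT added 4 h, formazan dissolved in DMSO, absorbance 570/630 nm; growth inhibition = 1 − treated/untreated, three independent repeats, mean±SD.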

[2] = test system: Ovarian cancer tumor cells; experiment: MTT proliferation inhibition, ovarian cancer cells; type: cell-based, human; parameters: concentration or dose not given beside the values; conditions: 48 h
How it was run: as §1

[3] = test system: Kidney cancer tumor cells; experiment: MTT proliferation inhibition, kidney cancer cells; type: cell-based, human; parameters: concentration or dose not given beside the values; conditions: 48 h
How it was run: as §1

[4] = test system: Cervical cancer tumor cells; experiment: MTT proliferation inhibition, cervical cancer cells; type: cell-based, human; parameters: concentration or dose not given beside the values; conditions: 48 h
How it was run: as §1

[5] = test system: Pancreatic cancer tumor cells; experiment: MTT proliferation inhibition, pancreatic cancer cells; type: cell-based, human; parameters: concentration or dose not given beside the values; conditions: 48 h
How it was run: as §1

[6] = test system: Bladder Cancer tumor cells; experiment: MTT proliferation inhibition, bladder cancer cells; type: cell-based, human; parameters: concentration or dose not given beside the values; conditions: 48 h
How it was run: as §1

[7] = test system: IL-1β production by mouse peritoneal macrophages; experiment: IL-1β production by mouse peritoneal macrophages (ELISA); type: cell-based; conditions: 48 h
How it was run: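 Starch-elicited mouse peritoneal macrophages (2×10^6 cells/mL), adhered 3 h, treated with low, medium and high concentrations of mPEG-HM-1 for 48 h; dexamethasone as positive control. Supernatant IL-1β quantified by sandwich ELISA at OD450.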

mouse spleen lymphocytes = experiment: ConA-stimulated mouse spleen lymphocyte proliferation (MTT); type: cell-based; conditions: ConA 5 μg/mL, 48 h
How it was run: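 Proliferation read by MTT (4 h), DMSO solubilisation and OD 570 nm, 5 replicates, after 48 h culture at 37° C. Cells were erythrocyte-depleted splenocytes at 5×10^6/mL in RPMI 1640 plus 10% calf serum; groups were blank, ConA and dexamethasone 0.02 mg/mL.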

Lung cancer tumor cells = experiment: MTT proliferation inhibition, lung cancer cells; type: cell-based, human; parameters: concentration or dose not given beside the values; conditions: 48 h
How it was run: as §1

[8] = test system: Head and neck cancer tumor cells; experiment: MTT proliferation inhibition, head and neck cancer cells; type: cell-based, human; parameters: concentration or dose not given beside the values; conditions: 48 h
How it was run: as §1

Melanoma tumor cells = experiment: MTT proliferation inhibition, melanoma cells; type: cell-based, human; parameters: concentration or dose not given beside the values; conditions: 48 h
How it was run: as §1

| Substance | rate of growth inhibition [1] [%] | rate of growth inhibition [2] [%] | rate of growth inhibition [3] [%] | rate of growth inhibition [4] [%] | rate of growth inhibition [5] [%] | rate of growth inhibition [6] [%] | IL-1β ([7]; 10 μg/mL) [pg/mL] | Inhibition Rate of IL-1β production ([7]; 10 μg/mL) [%] | IL-1β ([7]; 20 μg/mL) [pg/mL] | Inhibition Rate of IL-1β production ([7]; 20 μg/mL) [%] | A570 nm/A630 nm (mouse spleen lymphocytes; 10 μg/mL) | Inhibition Rate of spleen lymphocyte proliferation (mouse spleen lymphocytes; 10 μg/mL) [%] | A570 nm/A630 nm (mouse spleen lymphocytes; 20 μg/mL) | Inhibition Rate of spleen lymphocyte proliferation (mouse spleen lymphocytes; 20 μg/mL) [%] | rate of growth inhibition (Lung cancer tumor cells) [%] | rate of growth inhibition [8] [%] | rate of growth inhibition (Melanoma tumor cells) [%] | IL-1β ([7]; 40 μg/mL) [pg/mL] | A570 nm/A630 nm (mouse spleen lymphocytes; 40 μg/mL) | Inhibition Rate of spleen lymphocyte proliferation (mouse spleen lymphocytes; 40 μg/mL) [%] | further results |
| --- | --- | --- | --- | --- | --- | --- | --- | --- | --- | --- | --- | --- | --- | --- | --- | --- | --- | --- | --- | --- | --- |
| mPEG-ALD5k-Arg-Gly-Ala-Asp-Arg-Ala-Gly-Gly-Gly-Gly-Arg-Gly-Asp ({mPEG‑ALD 5 kDa}-RGADRAGGGGRGD) [mPEG-ALD5k-HM-1] | 40.23 ± 10.05 | 65.81 ± 20.42 | 55.43 ± 14.04 | 61.12 ± 18.39 | 52.19 ± 12.64 | 35.93 ± 10.29 | 654.50 ± 18.43 | 28.62 | 516.13 ± 10.95 | 43.71 | 0.5448 ± 0.1072 | 20.68 | 0.4779 ± 0.1178 | 30.42 | 45.76 ± 13.20 | 40.71 ± 11.33 | 63.61 ± 21.30 | – | – | – | IL-1β ([7]; 5 μg/mL): 734.73 ± 16.59 pg/mL; Inhibition Rate of IL-1β production ([7]; 5 μg/mL): 19.87%; A570 nm/A630 nm (mouse spleen lymphocytes; 5 μg/mL): 0.6241 ± 0.0917; Inhibition Rate of spleen lymphocyte proliferation (mouse spleen lymphocytes; 5 μg/mL): 9.14% |
| mPEG2-NHS20k-Arg-Gly-Ala-Asp-Arg-Ala-Gly-Gly-Gly-Gly-Arg-Gly-Asp ({mPEG2‑NHS 20 kDa}-RGADRAGGGGRGD) [mPEG2-NHS20k-HM-1] | 43.68 ± 13.61 | 63.55 ± 19.60 | 55.20 ± 15.43 | 60.63 ± 19.39 | 52.13 ± 13.32 | 49.79 ± 12.73 | – | – | 759.06 ± 16.96 | 18.04 | – | – | 0.6082 ± 0.0990 | 12.16 | 50.82 ± 12.68 | 46.18 ± 11.22 | 69.11 ± 21.79 | 655.24 ± 18.59 | 0.4879 ± 0.1156 | 29.53 | Inhibition Rate of IL-1β production ([7]; 40 μg/mL): 29.25%; IL-1β ([7]; 80 μg/mL): 552.35 ± 10.50 pg/mL; Inhibition Rate of IL-1β production ([7]; 80 μg/mL): 40.36%; A570 nm/A630 nm (mouse spleen lymphocytes; 80 μg/mL): 0.4375 ± 0.1095; Inhibition Rate of spleen lymphocyte proliferation (mouse spleen lymphocytes; 80 μg/mL): 36.82% |
| mPEG2-NHS5k-Arg-Gly-Ala-Asp-Arg-Ala-Gly-Gly-Gly-Gly-Arg-Gly-Asp ({mPEG2‑NHS 5 kDa}-RGADRAGGGGRGD) [mPEG2-NHS5k-HM-1] | 36.23 ± 12.15 | 56.88 ± 21.07 | 47.52 ± 11.48 | 49.15 ± 14.23 | 46.58 ± 13.12 | 38.64 ± 12.72 | 681.45 ± 12.09 | 26.42 | 563.37 ± 13.21 | 39.17 | 0.5624 ± 0.1098 | 18.78 | 0.4873 ± 0.1126 | 29.62 | 42.83 ± 12.58 | 37.13 ± 11.32 | 59.21 ± 18.93 | – | – | – | IL-1β ([7]; 5 μg/mL): 763.97 ± 15.46 pg/mL; Inhibition Rate of IL-1β production ([7]; 5 μg/mL): 17.51%; A570 nm/A630 nm (mouse spleen lymphocytes; 5 μg/mL): 0.6304 ± 0.0983; Inhibition Rate of spleen lymphocyte proliferation (mouse spleen lymphocytes; 5 μg/mL): 8.96% |
| mPEG-ALD20k-Arg-Gly-Ala-Asp-Arg-Ala-Gly-Gly-Gly-Gly-Arg-Gly-Asp ({mPEG‑ALD 20 kDa}-RGADRAGGGGRGD) [mPEG-ALD20k-HM-1] | 50.35 ± 15.23 | 80.68 ± 21.69 | 70.23 ± 20.58 | 75.66 ± 20.10 | 70.65 ± 20.29 | 45.29 ± 11.63 | – | – | 729.13 ± 13.12 | 20.48 | – | – | 0.6035 ± 0.0989 | 12.14 | 66.38 ± 17.16 | 47.61 ± 10.68 | 80.71 ± 23.46 | 628.18 ± 15.34 | 0.4876 ± 0.1259 | 29.02 | Inhibition Rate of IL-1β production ([7]; 40 μg/mL): 31.49%; IL-1β ([7]; 80 μg/mL): 438.93 ± 12.56 pg/mL; Inhibition Rate of IL-1β production ([7]; 80 μg/mL): 52.13%; A570 nm/A630 nm (mouse spleen lymphocytes; 80 μg/mL): 0.4406 ± 0.1074; Inhibition Rate of spleen lymphocyte proliferation (mouse spleen lymphocytes; 80 μg/mL): 35.85% |
| mPEG-ALD10k-Arg-Gly-Ala-Asp-Arg-Ala-Gly-Gly-Gly-Gly-Arg-Gly-Asp ({mPEG‑ALD 10 kDa}-RGADRAGGGGRGD) [mPEG-ALD10k-HM-1] | 55.30 ± 13.10 | 85.73 ± 22.17 | 75.23 ± 19.11 | 83.04 ± 18.74 | 79.21 ± 19.14 | 52.68 ± 13.12 | 724.09 ± 16.59 | 21.03 | 620.94 ± 18.43 | 32.28 | 0.6116 ± 0.1046 | 10.96 | 0.5352 ± 0.1022 | 22.08 | 65.73 ± 16.20 | 48.93 ± 12.14 | 88.39 ± 22.38 | 455.16 ± 10.95 | 0.4651 ± 0.1086 | 32.29 | – |
